Data as given in patent US11535632B2, “Solid forms of an S1P-receptor modulator” (ESCAPE Bio, Inc., priority 2019, dated 2022).

Assay: Solid state stability study
Assay type: physicochemical
Text: The two lots of Compound 1 were characterized by HPLC, PLM, XRPD, DSC, TGA, and KF. […] According to the stability study at different conditions, the two forms of compound were practically stable at different humidity for at least 4 weeks, with no XRPD pattern change and no growth of impurities were found.

- Crystallinity (XRPD & PLM) (4 weeks, 25° C./60% RH): Crystalline
- Purity (4 weeks, 25° C./60% RH): 99.55%
- Weight loss (TGA) (~120° C.) (4 weeks, 25° C./60% RH): 2.374%
- Crystallinity (XRPD & PLM) (4 weeks, 40° C./75% RH): Crystalline
- Purity (4 weeks, 40° C./75% RH): 99.55%
- Weight loss (TGA) (~120° C.) (4 weeks, 40° C./75% RH): 2.319%
- Crystallinity (XRPD & PLM) (6 weeks, 25° C./60% RH): Crystalline
- Purity (6 weeks, 25° C./60% RH): 99.54%
- Water content (6 weeks, 25° C./60% RH): 3.361%
- Weight loss (TGA) (~120° C.) (6 weeks, 25° C./60% RH): 2.364%
- Crystallinity (XRPD & PLM) (6 weeks, 40° C./75% RH): Crystalline
- Purity (6 weeks, 40° C./75% RH): 99.53%
- Water content (6 weeks, 40° C./75% RH): 3.301%
- Weight loss (TGA) (~120° C.) (6 weeks, 40° C./75% RH): 2.276%
- Crystallinity (XRPD & PLM) (8 weeks, 25° C./60% RH): Crystalline
- Purity (8 weeks, 25° C./60% RH): 99.54%
- Water content (8 weeks, 25° C./60% RH): 3.830%
- Weight loss (TGA) (~120° C.) (8 weeks, 25° C./60% RH): 2.943%
- Crystallinity (XRPD & PLM) (8 weeks, 40° C./75% RH): Crystalline
- Purity (8 weeks, 40° C./75% RH): 99.55%
- Water content (8 weeks, 40° C./75% RH): 3.494%
- Weight loss (TGA) (~120° C.) (8 weeks, 40° C./75% RH): 3.809%
- Crystallinity (XRPD & PLM) (Initial): Crystalline
- Purity (Initial): 99.54%
- Water content (Initial): 3.677%
- Weight loss (TGA) (~120° C.) (Initial): 2.233%
Structure (SMILES): O=C(O)[C@H]1C[C@@H](N2CCc3oc(-c4ccc(OCc5ccc(Cl)cc5)cc4)nc3C2)C1 [Form B, (1s,3s)-3-(2-(4-((4-chlorobenzyl)oxy)phenyl)-6,7-dihydrooxazolo[4,5-c]pyridin-5(4H)-yl)cyclobutane-1-carboxylic acid]
